Patent US6638973B2, “Taxane formulations” (FSU Research Foundation, Inc., priority 2000, dated 2003)
pIC50: −log10 of the molar value.

test system: HCT116 cells; assay: In vitro cytotoxicity measured by the cell colony formation assay; assay type: cell-based; settings: HCT116 cells, 72 h drug incubation, colonies counted after 7 days; ID50 = drug concentration producing 50% inhibition of colony formation; read-out: IN VITRO ID 50 (nm) HCT116
Outline: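 Colony-forming survival was scored 7 days after a 72 h, 37 °C compound exposure followed by washout into fresh medium.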

SMILES | pIC50
CC(=O)O[C@@]12CO[C@@H]1C[C@H](OC(=O)NC1CCCCC1)[C@@]1(C)C(=O)[C@H](O)C3=C(C)[C@@H](OC(=O)[C@H](O)[C@@H](NC(=O)OC(C)(C)C)c4ccco4)C[C@@](O)([C@@H](OC(=O)c4ccccc4)C12)C3(C)C (stereo partly shown) [Compound 5373] | > 8.00
CCNC(=O)O[C@H]1C[C@H]2OC[C@@]2(OC(C)=O)C2[C@H](OC(=O)c3ccccc3)[C@]3(O)C[C@H](OC(=O)[C@H](O)[C@@H](NC(=O)OC(C)(C)C)c4ccco4)C(C)=C([C@@H](O)C(=O)[C@@]21C)C3(C)C (stereo partly shown) [Compound 5393] | > 9.00
CC(=O)O[C@@]12CO[C@@H]1C[C@H](OC(=O)Nc1ccc(F)c(F)c1)[C@@]1(C)C(=O)[C@H](O)C3=C(C)[C@@H](OC(=O)[C@H](O)[C@@H](NC(=O)OC(C)(C)C)c4ccco4)C[C@@](O)([C@@H](OC(=O)c4ccccc4)C12)C3(C)C (stereo partly shown) [Compound 5415] | > 9.00
CC(=O)O[C@@]12CO[C@@H]1C[C@H](OC(=O)NC(C)(C)C)[C@@]1(C)C(=O)[C@H](O)C3=C(C)[C@@H](OC(=O)[C@H](O)[C@@H](NC(=O)OC(C)(C)C)c4ccco4)C[C@@](O)([C@@H](OC(=O)c4ccccc4)C12)C3(C)C (stereo partly shown) [Compound 5454] | > 8.00
CC(=O)O[C@@]12CO[C@@H]1C[C@H](OC(=O)Nc1ccc(F)c(F)c1)[C@@]1(C)C(=O)[C@H](O)C3=C(C)[C@@H](OC(=O)[C@H](O)[C@@H](NC(=O)C=C(C)C)c4ccco4)C[C@@](O)([C@@H](OC(=O)c4ccccc4)C12)C3(C)C (stereo partly shown) [Compound 5522] | > 9.00
CC(=O)O[C@@]12CO[C@@H]1C[C@H](OC(=O)Nc1ccccc1)[C@@]1(C)C(=O)[C@H](O)C3=C(C)[C@@H](OC(=O)[C@H](O)[C@@H](NC(=O)C=C(C)C)c4ccco4)C[C@@](O)([C@@H](OC(=O)c4ccccc4)C12)C3(C)C (stereo partly shown) [Compound 5535, N-Debenzoyl-N-isobutenyl-3′-desphenyl-3′-(2-furyl)-7-phenylcarbamoyl taxol] | > 9.00
CCNC(=O)O[C@H]1C[C@H]2OC[C@@]2(OC(C)=O)C2[C@H](OC(=O)c3ccccc3)[C@]3(O)C[C@H](OC(=O)[C@H](O)[C@@H](NC(=O)C=C(C)C)c4ccco4)C(C)=C([C@@H](O)C(=O)[C@@]21C)C3(C)C (stereo partly shown) [Compound 5588] | > 9.00
CCCNC(=O)O[C@H]1C[C@H]2OC[C@@]2(OC(C)=O)C2[C@H](OC(=O)c3ccccc3)[C@]3(O)C[C@H](OC(=O)[C@H](O)[C@@H](NC(=O)OC(C)(C)C)c4ccco4)C(C)=C([C@@H](O)C(=O)[C@@]21C)C3(C)C (stereo partly shown) [Compound 5665] | < 7.30
C/C=C/C(=O)N[C@@H](c1ccco1)[C@@H](O)C(=O)O[C@H]1C[C@@]2(O)[C@@H](OC(=O)c3ccccc3)C3[C@](C)(C(=O)[C@H](O)C(=C1C)C2(C)C)[C@@H](OC(=O)Nc1ccccc1)C[C@H]1OC[C@@]31OC(C)=O (stereo partly shown) [Compound 5757] | > 8.00
CC=CC(=O)NC(c1ccco1)C(O)C(=O)OC1CC2(O)C(OC(=O)c3ccccc3)C3C4(OC(C)=O)COC4CC(OC(=O)Nc4ccc(F)c(F)c4)C3(C)C(=O)C(O)C(=C1C)C2(C)C (stereo not shown) [Compound 5800] | > 8.00
C/C=C/C(=O)N[C@@H](c1ccco1)[C@@H](O)C(=O)O[C@H]1C[C@@]2(O)[C@@H](OC(=O)c3ccccc3)C3[C@](C)(C(=O)[C@H](O)C(=C1C)C2(C)C)[C@@H](OC(=O)NCC)C[C@H]1OC[C@@]31OC(C)=O (stereo partly shown) [Compound 5822] | > 8.00

same assay, conditions: HCT116 cells, 72 h incubation with drug, colonies counted after 7 days; ID50 = drug concentration producing 50% inhibition of colony formation; read-out: IN VITRO ID 50 (nm) HCT116

SMILES | pIC50
COC(=O)O[C@H]1C[C@H]2OC[C@@]2(OC(C)=O)C2[C@H](OC(=O)c3ccccc3)[C@]3(O)C[C@H](OC(=O)[C@H](O)[C@@H](NC(=O)OCC(C)C)C4CC4)C(C)=C([C@@H](O)C(=O)[C@@]21C)C3(C)C (stereo partly shown) [Compound 5211] | > 8.00
CCOC(=O)O[C@H]1C[C@H]2OC[C@@]2(OC(C)=O)C2[C@H](OC(=O)c3ccccc3)[C@]3(O)C[C@H](OC(=O)[C@H](O)[C@@H](NC(=O)OCC(C)C)C4CC4)C(C)=C([C@@H](O)C(=O)[C@@]21C)C3(C)C (stereo partly shown) [Compound 5225] | > 8.00
CC(=O)O[C@@]12CO[C@@H]1C[C@H](OC(=O)OCc1ccccc1)[C@@]1(C)C(=O)[C@H](O)C3=C(C)[C@@H](OC(=O)[C@H](O)[C@@H](NC(=O)OC(C)(C)C)c4ccco4)C[C@@](O)([C@@H](OC(=O)c4ccccc4)C12)C3(C)C (stereo partly shown) [Compound 5433] | > 9.00
CC(=O)O[C@@]12CO[C@@H]1C[C@H](OC(=O)OCc1ccccc1)[C@@]1(C)C(=O)[C@H](O)C3=C(C)[C@@H](OC(=O)[C@H](O)[C@@H](NC(=O)C=C(C)C)c4ccco4)C[C@@](O)([C@@H](OC(=O)c4ccccc4)C12)C3(C)C (stereo partly shown) [Compound 5466] | > 9.00

same assay, conditions: HCT116 colony formation; 72 h drug incubation, colonies counted after 7 days; Example 10, C-10 ester/C-7 hydroxy taxanes; read-out: IN VITRO ID 50 (nm) HCT116

SMILES | pIC50
CC(=O)O[C@@]12CO[C@@H]1C[C@H](O)[C@@]1(C)C(=O)[C@H](OC(=O)C3CC3)C3=C(C)[C@@H](OC(=O)[C@H](O)[C@@H](NC(=O)OCC(C)C)C4CC4)C[C@@](O)([C@@H](OC(=O)c4ccccc4)C12)C3(C)C (stereo partly shown) [Compound 5232] | > 8.00
CCC(=O)O[C@H]1C(=O)[C@@]2(C)C([C@H](OC(=O)c3ccccc3)[C@]3(O)C[C@H](OC(=O)[C@H](O)[C@@H](NC(=O)OC(C)(C)C)c4ccoc4)C(C)=C1C3(C)C)[C@]1(OC(C)=O)CO[C@@H]1C[C@@H]2O (stereo partly shown) [Compound 5495] | > 9.00

same assay, conditions: HCT116 colony formation; 72 h drug incubation, colonies counted after 7 days; Example 15, C-7 substituted acetate/C-10 hydroxy taxanes; read-out: IN VITRO ID 50 (nm) HCT116

SMILES | pIC50
COCC(=O)O[C@H]1C[C@H]2OC[C@@]2(OC(C)=O)C2[C@H](OC(=O)c3ccccc3)[C@]3(O)C[C@H](OC(=O)[C@H](O)[C@@H](NC(=O)OC(C)(C)C)c4ccco4)C(C)=C([C@@H](O)C(=O)[C@@]21C)C3(C)C (stereo partly shown) [Compound 5445] | > 9.00
COCC(=O)O[C@H]1C[C@H]2OC[C@@]2(OC(C)=O)C2[C@H](OC(=O)c3ccccc3)[C@]3(O)C[C@H](OC(=O)[C@H](O)[C@@H](NC(=O)C=C(C)C)c4ccco4)C(C)=C([C@@H](O)C(=O)[C@@]21C)C3(C)C (stereo partly shown) [Compound 5474] | > 9.00
CC(=O)OCC(=O)O[C@H]1C[C@H]2OC[C@@]2(OC(C)=O)C2[C@H](OC(=O)c3ccccc3)[C@]3(O)C[C@H](OC(=O)[C@H](O)[C@@H](NC(=O)C=C(C)C)c4ccco4)C(C)=C([C@@H](O)C(=O)[C@@]21C)C3(C)C (stereo partly shown) [Compound 5544] | > 9.00
CC(=O)O[C@@]12CO[C@@H]1C[C@H](OC(=O)COc1ccccc1)[C@@]1(C)C(=O)[C@H](O)C3=C(C)[C@@H](OC(=O)[C@H](O)[C@@H](NC(=O)C=C(C)C)c4ccco4)C[C@@](O)([C@@H](OC(=O)c4ccccc4)C12)C3(C)C (stereo partly shown) [Compound 5555] | > 9.00
CSCC(=O)O[C@H]1C[C@H]2OC[C@@]2(OC(C)=O)C2[C@H](OC(=O)c3ccccc3)[C@]3(O)C[C@H](OC(=O)[C@H](O)[C@@H](NC(=O)OC(C)(C)C)c4ccco4)C(C)=C([C@@H](O)C(=O)[C@@]21C)C3(C)C (stereo partly shown) [Compound 5600] | > 9.00
CC(=O)O[C@@]12CO[C@@H]1C[C@H](OC(=O)COc1ccccc1)[C@@]1(C)C(=O)[C@H](O)C3=C(C)[C@@H](OC(=O)[C@H](O)[C@@H](NC(=O)OC(C)(C)C)c4ccco4)C[C@@](O)([C@@H](OC(=O)c4ccccc4)C12)C3(C)C (stereo partly shown) [Compound 5616] | > 9.00
CC(=O)OCC(=O)O[C@H]1C[C@H]2OC[C@@]2(OC(C)=O)C2[C@H](OC(=O)c3ccccc3)[C@]3(O)C[C@H](OC(=O)[C@H](O)[C@@H](NC(=O)OC(C)(C)C)c4ccco4)C(C)=C([C@@H](O)C(=O)[C@@]21C)C3(C)C (stereo partly shown) [Compound 5622] | > 9.00
C/C=C/C(=O)N[C@@H](c1ccco1)[C@@H](O)C(=O)O[C@H]1C[C@@]2(O)[C@@H](OC(=O)c3ccccc3)C3[C@](C)(C(=O)[C@H](O)C(=C1C)C2(C)C)[C@@H](OC(=O)COc1ccccc1)C[C@H]1OC[C@@]31OC(C)=O (stereo partly shown) [Compound 5811] | > 9.00
